For data set [1], the target named is CYP3A4 (Homo sapiens, UniProt P08684). Nature of the data set: […] recombinant human CYP3A4 mediated drug metabolism in human liver microsomes assessed as intrinsic clearance at 1 uM incubated for 45 mins in presence of NADPH regenerating system by LC-MS/MS analysis. The following applies: read-out: CLH. In kind it is ADME, Microsome.
Data set [2] can be described thus: Lipophilicity, log D of compound. In kind it is physicochemical. The note with it: octanol/water.
In data set [3] the target is Cytochrome P450 2D6 (Homo sapiens, UniProt P10635). Nature of the data set: (§1) […] recombinant human CYP2D6 mediated drug metabolism in human liver microsomes assessed as intrinsic clearance at 1 uM incubated for 45 mins in presence of NADPH regenerating system by LC-MS/MS analysis. In kind it is ADME, Microsome. The following applies: microsomes, 0.75 h, 1 µM.
Chain of Cytochrome P450 2D6 (P10635 whole entry): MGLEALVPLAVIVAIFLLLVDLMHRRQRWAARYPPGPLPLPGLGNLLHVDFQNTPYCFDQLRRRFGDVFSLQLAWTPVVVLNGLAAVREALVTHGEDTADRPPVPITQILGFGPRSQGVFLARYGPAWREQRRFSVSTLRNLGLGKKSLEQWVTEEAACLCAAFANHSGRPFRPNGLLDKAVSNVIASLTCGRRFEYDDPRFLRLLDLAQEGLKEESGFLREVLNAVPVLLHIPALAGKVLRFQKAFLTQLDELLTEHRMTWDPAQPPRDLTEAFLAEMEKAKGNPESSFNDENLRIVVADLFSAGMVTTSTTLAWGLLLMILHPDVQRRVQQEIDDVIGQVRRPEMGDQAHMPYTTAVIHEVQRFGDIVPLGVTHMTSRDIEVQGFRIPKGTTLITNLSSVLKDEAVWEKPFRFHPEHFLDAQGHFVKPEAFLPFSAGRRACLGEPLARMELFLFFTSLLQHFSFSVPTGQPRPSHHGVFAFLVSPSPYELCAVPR

Data set [4] can be described thus: Protein binding in human plasma assessed as fraction unbound at 1 uM incubated for 6 hrs by rapid equilibrium dialysis based LC-MS/MS analysis. In kind it is ADME, cell-free.
Data set [5] in a line: Unbound clearance in Wistar rat plasma at 0.5 mg/kg, iv. In kind it is ADME, organism-based. The note with it: in vivo.
A short description of data set [6]: Total clearance in Wistar rat plasma at 0.5 mg/kg, iv. In kind it is ADME, organism-based.
Data set [7] can be described thus: Metabolic stability in human hepatocytes assessed as intrinsic clearance per 10^6 cells at 1 uM by LC-MS/MS analysis. In kind it is ADME, cell-based, Hepatocyte.
Data set [8] can be described thus: Metabolic stability in rat hepatocytes assessed as intrinsic clearance per 10^6 cells at 1 uM by LC-MS/MS analysis. In kind it is ADME, cell-based, Hepatocyte.
A short description of data set [9]: Unbound clearance in Beagle dog plasma at 1 mg/kg, iv. In kind it is ADME, organism-based, Canis lupus familiaris. The following applies: in vivo.
Data set [10] in a line: Total clearance in Beagle dog plasma at 1 mg/kg, iv. In kind it is ADME, organism-based, Canis lupus familiaris.
Data set [11] addresses Voltage-gated inwardly rectifying potassium channel KCNH2 (Homo sapiens, UniProt Q12809). Nature of the data set: Inhibition of human ERG stably expressed in CHO cells at -80 mV holding voltage by automated QPatch electrophysiological assay. In kind it is toxicity, cell-based.
A short description of data set [12]: Protein binding in rat plasma assessed as fraction unbound at 1 uM incubated for 6 hrs by rapid equilibrium dialysis based LC-MS/MS analysis. In kind it is ADME, cell-free.
A short description of data set [13]: Metabolic stability in dog hepatocytes assessed as intrinsic clearance per 10^6 cells at 1 uM by LC-MS/MS analysis. In kind it is ADME, cell-based, Canis lupus familiaris, Hepatocyte.
Data set [14] has as its target T1, C-X-C chemokine receptor type 3 (Homo sapiens, UniProt P49682).
T1 sequence (P49682 whole entry): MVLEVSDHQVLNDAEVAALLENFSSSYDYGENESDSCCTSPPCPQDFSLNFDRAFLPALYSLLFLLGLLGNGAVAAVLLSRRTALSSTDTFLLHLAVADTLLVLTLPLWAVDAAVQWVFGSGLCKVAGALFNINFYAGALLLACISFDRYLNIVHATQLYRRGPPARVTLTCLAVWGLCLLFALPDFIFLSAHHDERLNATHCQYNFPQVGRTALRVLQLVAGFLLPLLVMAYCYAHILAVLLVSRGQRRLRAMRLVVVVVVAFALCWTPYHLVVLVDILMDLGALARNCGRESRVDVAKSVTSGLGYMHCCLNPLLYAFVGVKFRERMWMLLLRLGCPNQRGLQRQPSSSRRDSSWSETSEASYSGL
Briefly: Antagonist activity at CXCR3 (unknown origin) in human T cells in venous blood assessed as receptor internalization incubated for 30 mins in presence of CXCL10 by flow cytometric analysis. In kind it is cell-based, T cell.

The nature of data set [15]: Protein binding in dog plasma assessed as fraction unbound at 1 uM incubated for 6 hrs by rapid equilibrium dialysis based LC-MS/MS analysis. In kind it is ADME, cell-free, Canis lupus familiaris.
A short description of data set [16]: Metabolic stability in human liver microsomes assessed as intrinsic clearance at 1 uM and measured upto 15 mins in presence of NADPH regenerating system by LC-MS/MS analysis. In kind it is ADME, Microsome. The note with it: read-out: CLH.
A short description of data set [17]: Metabolic stability in rat liver microsomes assessed as intrinsic clearance at 1 uM and measured upto 15 mins in presence of NADPH regenerating system by LC-MS/MS analysis. In kind it is ADME, Microsome. The following applies: read-out: CLH.
Data set [18] can be described thus: Metabolic stability in dog liver microsomes assessed as intrinsic clearance at 1 uM and measured upto 15 mins in presence of NADPH regenerating system by LC-MS/MS analysis. In kind it is ADME, Canis lupus familiaris, Microsome. The following applies: read-out: CLH.
Data set [19] can be described thus: Drug excretion in urine of Wistar rat assessed as unchanged drug at 0.5 mg/kg, iv. In kind it is ADME, organism-based. The following applies: read-out: Drug excretion.
The target of data set [20] is CYP2D6 (Homo sapiens, UniProt P10635). Described as §1. In kind it is ADME, Microsome. The note with it: recombinant human CYP2D6, read-out: CLH.
Chain of CYP2D6 (P10635 whole entry): as the sequence (P10635 whole entry) above
A short description of data set [21]: Drug excretion in urine of Wistar rat assessed as unchanged drug at 3 mg/kg, iv. In kind it is ADME, organism-based. The following applies: read-out: Drug excretion.

Chain of Voltage-gated inwardly rectifying potassium channel KCNH2 (Q12809 whole entry): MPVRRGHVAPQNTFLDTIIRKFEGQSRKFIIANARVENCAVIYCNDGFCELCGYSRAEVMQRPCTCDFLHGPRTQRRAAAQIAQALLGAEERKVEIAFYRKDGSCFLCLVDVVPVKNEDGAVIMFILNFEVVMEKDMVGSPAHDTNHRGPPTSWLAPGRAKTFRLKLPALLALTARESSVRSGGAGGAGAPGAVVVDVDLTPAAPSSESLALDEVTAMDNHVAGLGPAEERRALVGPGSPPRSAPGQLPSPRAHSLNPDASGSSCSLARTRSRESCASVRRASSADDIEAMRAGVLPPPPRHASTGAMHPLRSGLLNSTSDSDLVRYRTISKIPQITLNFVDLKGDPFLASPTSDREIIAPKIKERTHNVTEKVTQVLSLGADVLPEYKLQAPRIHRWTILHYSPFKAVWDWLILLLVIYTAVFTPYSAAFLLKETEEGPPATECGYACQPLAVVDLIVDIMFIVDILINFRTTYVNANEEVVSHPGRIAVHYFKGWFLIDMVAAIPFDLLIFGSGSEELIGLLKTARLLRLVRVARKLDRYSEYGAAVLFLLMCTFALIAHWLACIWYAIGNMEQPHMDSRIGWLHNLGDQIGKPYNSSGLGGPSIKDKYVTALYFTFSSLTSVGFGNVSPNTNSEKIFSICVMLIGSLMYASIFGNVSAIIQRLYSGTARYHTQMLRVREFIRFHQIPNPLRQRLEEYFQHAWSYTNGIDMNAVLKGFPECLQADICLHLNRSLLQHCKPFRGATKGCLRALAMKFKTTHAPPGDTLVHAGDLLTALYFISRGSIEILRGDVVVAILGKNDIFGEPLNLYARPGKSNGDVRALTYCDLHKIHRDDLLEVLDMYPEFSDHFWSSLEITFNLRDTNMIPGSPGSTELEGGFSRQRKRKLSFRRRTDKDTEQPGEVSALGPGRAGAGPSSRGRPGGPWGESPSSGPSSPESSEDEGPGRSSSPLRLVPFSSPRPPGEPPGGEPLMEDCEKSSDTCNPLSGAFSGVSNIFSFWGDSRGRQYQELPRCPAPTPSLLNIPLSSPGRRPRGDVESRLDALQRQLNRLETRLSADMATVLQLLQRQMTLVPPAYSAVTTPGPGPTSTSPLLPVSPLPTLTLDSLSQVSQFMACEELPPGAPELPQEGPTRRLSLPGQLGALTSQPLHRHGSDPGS
Chain of CYP3A4 (P08684 whole entry): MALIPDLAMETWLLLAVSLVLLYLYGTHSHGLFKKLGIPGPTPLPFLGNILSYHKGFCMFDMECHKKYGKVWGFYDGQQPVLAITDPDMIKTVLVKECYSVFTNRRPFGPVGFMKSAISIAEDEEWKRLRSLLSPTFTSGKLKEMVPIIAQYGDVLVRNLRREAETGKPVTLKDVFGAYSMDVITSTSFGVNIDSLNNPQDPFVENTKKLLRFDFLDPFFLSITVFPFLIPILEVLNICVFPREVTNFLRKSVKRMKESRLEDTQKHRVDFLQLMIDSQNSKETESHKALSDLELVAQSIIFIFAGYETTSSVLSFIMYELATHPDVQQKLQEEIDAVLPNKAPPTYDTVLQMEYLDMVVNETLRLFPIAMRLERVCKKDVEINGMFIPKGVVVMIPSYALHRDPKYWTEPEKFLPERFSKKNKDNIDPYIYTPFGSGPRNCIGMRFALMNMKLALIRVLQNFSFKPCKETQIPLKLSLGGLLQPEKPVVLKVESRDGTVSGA

`CCc1ncn(CC(=O)N2CCN(c3sc(C(F)(F)F)nc3-c3cnc(C(F)(F)F)nc3)C[C@H]2CCO)n1`: the microsomal CLint at 1 µM was 0.33 µL/min/mg in data set [1], less than 10 µL/min/mg in [16], 13 µL/min/mg in data set [17] and less than 10 µL/min/mg in [18]. This molecule gave a logD in [2] of 2.8. For the same molecule, the CLH in [3] is 0.09 µL/min/mg; in [7] it was less than 2 µL/min/mg; in data set [8], 3.2 µL/min/mg; in data set [13] it was less than 2 µL/min/mg. Also, the fraction unbound at 6 h, 1 µM was determined as 0.15 in [4], 0.045 in data set [12] and 0.3 in [15]. The CL free in [5] came out at 311 mL/min/kg; in [9], 64 mL/min/kg. Further, the clearance is 14 mL/min/kg in [6] and 19 mL/min/kg in [10]. In addition, the IC50 in data set [11] came out at 9.8 µM; in data set [14], 44.9 nM. For the same molecule, the dose excreted in data set [19] was 37%.
Take `Cc1ccn(CC(=O)N2CCN(c3sc(C(F)(F)F)nc3-c3cnc(C(F)(F)F)nc3)C[C@@H]2CO)n1`: the microsomal CLint at 1 µM in data set [1] was 1.18 µL/min/mg; in data set [20], 0.41 µL/min/mg; in [16], less than 10 µL/min/mg; in [17] it was 13 µL/min/mg; in [18], 16 µL/min/mg. Further, the logD in data set [2] came out at 3. Besides, the unbound share (fraction unbound) at 6 h, 1 µM is 0.11 in data set [4], 0.01 in [12] and 0.22 in data set [15]. Besides, the CL free in data set [5] was found to be 710 mL/min/kg; in [9], 100 mL/min/kg. In addition, the clearance in [6] came out at 7.1 mL/min/kg; in data set [10], 22 mL/min/kg. Moreover, the figures for the CLH in data set [7], in [8] and in data set [13] were less than 2 µL/min/mg, 2.8 µL/min/mg and 2.4 µL/min/mg, respectively. Further, the IC50 in data set [11] came to 21 µM; in data set [14], 74.6 nM. In data set [21], the dose excreted came to 1%.

The values are drawn from ChEMBL document CHEMBL5247653, “Discovery of Clinical Candidate ACT-777991, a Potent CXCR3 Antagonist for Antigen-Driven and Inflammatory Pathologies” (J Med Chem, 2023).
